Key:
[1] = tested on: Aspergillus niger (DSM 12623); test: Minimum inhibitory concentration and synergy index (Kull) in Sabouraud glucose agar, visual growth reading; assay type: cell-based; conditions: 72 hours at 25° C.; for Synergistic Index Qa/QA + Qb/QB: below 1 = synergism, 1 = additive, above 1 = antagonism
Description: (§1) The synergism of a combination of 2-Methyl-isothiazolinone (MIT) with N,N-Dimethyldodecan-1-amine oxide was tested. Test organisms used was the mould Aspergillus niger (DSM 12623). For the purpose of the test, mixtures containing different concentrations of MIT and N,N-Dimethyldodecan-1-amine oxide were prepared and tested for their action on Aspergillus niger. […] The MIC is the concentration at which there is no formation of colonies or mycelia on the surface of the agar (Aspergillus niger).
(§2) The synergism that occurred was presented numerically by calculation of the synergy index (SI). This calculation was made using the common method of F. C. Kull et al., Applied Microbiology, vol. 9 (1961), p. 538. SI is calculated there in accordance with the following formula:
(§3) Synergy index SI=Qa/QA+Qb/QB
In the application of this formula to the MIT+N,N-Dimethyldodecan-1-amine oxide biocide system tested here, the variables in the formula have the following definition:
(§4) Qa=concentration of MIT in the mixture of N,N-Dimethyldodecan-1-amine oxide+MIT QA=concentration of MIT as sole biocide Qb=concentration of N,N-Dimethyldodecan-1-amine oxide in the biocide mixture of N,N-Dimethyldodecan-1-amine oxide+MIT QB=concentration of N,N-Dimethyldodecan-1-amine oxide as sole biocide
(§5) If the synergy index has a value of more than 1, this means that there is an antagonism. If the synergy index adopts a value of 1, this means that the action of the two biocides is additive. If the synergy index takes on a value of below 1, this means that there is synergism of the two biocides.
Determination of the Synergy Index of N,N-Dimethyldodecan-1-amine oxide+MIT in Respect of Aspergillus niger for an Incubation Time of 72 Hours at 25° C.

[2] = tested on: Candida albicans (ATCC 10231); test: Minimum inhibitory concentration and synergy index according to Kull et al.; assay type: cell-based; conditions: for Synergistic Index Qa/QA + Qb/QB: MIT + amine oxide
Description: as §1, §2, §3, §4, §5
Determination of the Synergy Index According to Kull et al. of N,N-Dimethyldodecan-1-amine oxide+MIT in Respect of Candida albicans (ATCC 10231)
The cell density of Candida albicans (ATCC 10231) was 10^6/ml, incubation time 72 hours, temperature 25° C.
Determination of the Synergy Index According to Kull et al. of N,N-Dimethyldodecan-1-amine oxide+MIT+2-n-octyl-4-isothiazolin-3-one (OIT) in Respect of Candida albicans (ATCC 10231)

[3] = Table 2, sum of MIT and amine oxide at MIC

Compound	Synergistic Index Qa/QA + Qb/QB [1]	MHK Qb (Amine oxide) ([1]; amine oxide concentration at MIC, alone (MIC) or in mixture with MIT)	Synergistic Index Qa/QA + Qb/QB ([2]; Table 2, 72 hours, 25° C.)	MHK Qb (Amine oxide) ([2]; Table 2, amine oxide concentration at MIC, alone or in mixture with MIT, 72 hours, 25° C.)	Qb/QB ([2]; Table 2, amine oxide in mixture / amine oxide as sole biocide)	Total [2, 3]	MHK Qa (MIT) ([1]; MIT concentration at MIC, alone (MIC) or in mixture with amine oxide, 3,7·10^6 spores per ml)	MHK Qa (MIT) ([2]; Table 2, MIT concentration at MIC, alone or in mixture with amine oxide, 10^6/ml, 72 hours, 25° C.)	Qa/QA ([2]; Table 2, MIT in mixture / MIT as sole biocide)	Total ([2]; Table 3)	Synergistic Index ([2]; Table 3, MIT + amine oxide + OIT)	Qb/QB ([2]; Table 3, OIT component)	MHK Qb (OIT) ([2]; Table 3, OIT concentration at MIC, alone or with MIT + amine oxide)
CCCCCCCCCCCC[N+](C)(C)[O-] [Amine oxide, N,N-Dimethyldodecan-1-amine oxide]	1.00	231 (MIC) ppm	1.00	50 ppm	1.00	50 ppm							
Cn1sccc1=O [MIT, 2-methylisothiazolin-3-one]	1.00		1.00			125 ppm	1000 (MIC) ppm	125 ppm	1.00				
CCCCCCCCn1sccc1=O [OIT, 2-n-octyl-4-isothiazolin-3-one]										3 ppm	1.00	1.00	3 ppm
